Measurements as given in US11208400B2, “Substituted 6-(1H-pyrazol-1-yl)pyrimidin-4-amine derivatives and uses thereof” (Bayer Aktiengesellschaft, priority 2016, dated 2021).

These compounds were tested against T1, human Npt2a (Homo sapiens, UniProt Q06495) (assay: Npt2a activity cell based assay, membrane potential dye, CHO T-REx hNpt2a cells). Conditions: doxycycline-induced, depolarization by sodium phosphate influx, average or median values if tested more than once.
T1 construct: expressed in transfected cells
T1 sequence (Q06495 1-639): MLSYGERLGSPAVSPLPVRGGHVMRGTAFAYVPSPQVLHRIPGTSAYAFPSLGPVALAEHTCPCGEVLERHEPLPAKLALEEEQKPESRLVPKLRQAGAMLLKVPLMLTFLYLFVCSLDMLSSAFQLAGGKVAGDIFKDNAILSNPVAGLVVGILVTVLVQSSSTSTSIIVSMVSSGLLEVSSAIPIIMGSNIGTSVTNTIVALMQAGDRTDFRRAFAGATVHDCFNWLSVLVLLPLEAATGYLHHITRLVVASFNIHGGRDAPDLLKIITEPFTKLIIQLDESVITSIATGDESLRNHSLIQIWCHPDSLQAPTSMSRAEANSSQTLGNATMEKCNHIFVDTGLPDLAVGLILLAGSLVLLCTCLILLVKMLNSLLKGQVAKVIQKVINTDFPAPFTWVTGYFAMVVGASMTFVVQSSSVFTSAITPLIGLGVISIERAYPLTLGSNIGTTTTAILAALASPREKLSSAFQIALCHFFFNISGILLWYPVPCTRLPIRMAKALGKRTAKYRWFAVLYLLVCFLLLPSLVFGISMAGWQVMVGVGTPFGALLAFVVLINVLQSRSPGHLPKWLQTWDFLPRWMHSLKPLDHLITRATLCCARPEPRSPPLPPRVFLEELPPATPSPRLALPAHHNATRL
Description: For measuring Npt2a activity in a cell based assay, a stable CHO cell line with inducible Npt2a expression was generated. Therefore, CHO T-Rex cells (life technologies cat. R718-07) were stably transfected with doxycycline-inducible human NPT2a (pcDNA5TO-hNpt2a). The obtained CHO T-REx hNpt2a cells were routinely cultured in Dulbecco's MEM/F12 (4.5 g/l Glucose, Gibco cat. 21331-020; 500 mL) supplemented with 10 ml Glutamax 100×, Sodium pyruvate (7 mL of 100 mM solution), HEPES (10 mL of 1 M solution), Sodium bicarbonate (10 mL of 7.5% solution), 10% Fetal Bovine Serum Tetracycline free (Clontech cat. 631106, 500 ml), Penicillin-Streptomycin (5 mL of 100× Solution), Blasticidin 10 μg/mL and 400 μg/mL Hygromycin.
Activity of Npt2a was detected by following depolarization of cellular membrane potential by influx of sodium phosphate using fluorescent membrane potential dye kit BLUE (Molecular devices cat. R8034). For Npt2a activity measurements, CHO T-Rex hNpt2a cells were seeded into 1536 well microtiter plates (GREINER Bio-One cat. 782092) with 750 cells/well in 7 μL/w of complete medium (2% Tetracycline-free FBS, 2% Poly-D-Lysine) without selective agents+Doxycycline 0.5 μg/mL to induce Npt2a gene expression, and grown for 24 h at 37° C., 5% carbon dioxide.
On the day of experiment a 1×MPdye Loading Solution was freshly prepared by re-suspending 15 mg of Blue MPdye powder in 10 mL of NHE buffer sodium-free (140 mM N-Methyl-D-glucamine, 5.4 mM KCl, 1 mM CaCl2, 11 mM D(±)-Glucose water free, 1.2 mM MgCl2, 10 mM HEPES; pH 7.4 (adjusted with hydrochloric acid); sterile filtered). 5 μl medium was removed from plates by robotic manipulation, then 5 μL/well of sodium-free NHE buffer was added. After incubation for 2 min, this washing step was repeated once. Then, 5 μL/w of buffer was removed from plates and cells were incubated for 5 min at room temperature with 5 μL/w of MPdye Loading Solution (1× in Sodium-free NHE Buffer). Test compounds were added to the cells at final test concentrations between 50 μM and 1 nM (0.6 μL/well, final DMSO 0.6%, prepared in MPDye Loading Solution) and incubated for 5 min at room temperature.
Plates were analyzed with an in house CCD camera device using a λexc 510-545 nm/λem 565-625 nm filter. Fluorescence was detected for 15 sec (background measurement M1). Activity of Npt2a was triggered by addition of 2 μL/well of 30 mM Na+ and 1 mM phosphate (prepared in a mixture of NHE Buffer Na+ free and NHE Buffer 140 mM Na+). Fluorescence was followed for 2-3 min (depolarization measurement M2). Data was normalized to cell number and dye loading efficiency by calculating M2/M1. This quotient was plotted against test compound concentration. Graph Pad Prism or equivalent in house software was used to create sigmoidal dose-response curves (variable slope) and determine IC50 values.

| Structure (SMILES) | IC50 [nM] |
| --- | --- |
| Cc1cc(C)n(-c2cc(Nc3c(C)c(-c4ccc(F)cc4)nn3CC(O)C3CC3)ncn2)n1 (racemic) [Example 369, (±)-1-cyclopropyl-2-[5-{[6-(3,5-dimethyl-1H-pyrazol-1-yl)pyrimidin-4-yl]amino}-3-(4-fluorophenyl)-4-methyl-1H-pyrazol-1-yl]ethanol] | 420 |
| Cc1nn(-c2cc(Nc3c(C)c(-c4ccc(F)cc4)nn3CC3CC3)ncn2)c(C)c1C(O)C(F)(F)F (racemic) [Example 374, (±)-1-[1-(6-{[1-(cyclopropylmethyl)-3-(4-fluorophenyl)-4-methyl-1H-pyrazol-5-yl]amino}pyrimidin-4-yl)-3,5-dimethyl-1H-pyrazol-4-yl]-2,2,2-trifluoroethanol] | 63 |
| Cc1nn(-c2cc(Nc3c(C)c(-c4ccc(F)cc4)nn3CC3CC3)ncn2)c2c1C(O)(C(F)(F)F)CC2 (racemic) [Example 386, (±)-1-(6-{[1-(cyclopropylmethyl)-3-(4-fluorophenyl)-4-methyl-1H-pyrazol-5-yl]amino}pyrimidin-4-yl)-3-methyl-4-(trifluoromethyl)-1,4,5,6-tetrahydrocyclopenta[c]pyrazol-4-ol] | 12 |
| Cc1nn(-c2cc(Nc3c(C)c(-c4ccc(C#N)cc4)nn3C)ncn2)c(C)c1C(O)C(F)(F)F (racemic) [Example 387, (±)-4-{5-[(6-{3,5-dimethyl-4-[2,2,2-trifluoro-1-hydroxyethyl]-1H-pyrazol-1-yl}pyrimidin-4-yl)amino]-1,4-dimethyl-1H-pyrazol-3-yl}benzonitrile] | 70 |
| Cc1nn(-c2cc(Nc3c(C)c(-c4ccc(F)cc4)nn3CC3CC3)ncn2)c(C)c1C(O)C(F)F (racemic) [Example 392, (±)-1-[1-(6-{[1-(cyclopropylmethyl)-3-(4-fluorophenyl)-4-methyl-1H-pyrazol-5-yl]amino}pyrimidin-4-yl)-3,5-dimethyl-1H-pyrazol-4-yl]-2,2-difluoroethanol] | 18 |
| Cc1c(-c2ccc(F)cc2)nn(CC2CC2)c1Nc1cc(-n2nc3c(c2C)C(O)(C(F)(F)F)CC3)ncn1 (racemic) [Example 403, (±)-2-(6-{[1-(cyclopropylmethyl)-3-(4-fluorophenyl)-4-methyl-1H-pyrazol-5-yl]amino}pyrimidin-4-yl)-3-methyl-4-(trifluoromethyl)-2,4,5,6-tetrahydrocyclopenta[c]pyrazol-4-ol] | 12 |
| Cc1c(-c2ccc(F)cc2)nn(CC2CC2)c1Nc1cc(-n2nc3c(c2C)C(C)(O)CC3)ncn1 (racemic) [Example 404, (±)-2-(6-{[1-(cyclopropylmethyl)-3-(4-fluorophenyl)-4-methyl-1H-pyrazol-5-yl]amino}pyrimidin-4-yl)-3,4-dimethyl-2,4,5,6-tetrahydrocyclopenta[c]pyrazol-4-ol] | 13 |
| Cc1nn(-c2cc(Nc3c(C)c(-c4ccc(F)cc4)nn3CC3CC3)ncn2)c(C)c1C(O)C1CC1 (racemic) [Example 405, (±)-cyclopropyl[1-(6-{[1-(cyclopropylmethyl)-3-(4-fluorophenyl)-4-methyl-1H-pyrazol-5-yl]amino}pyrimidin-4-yl)-3,5-dimethyl-1H-pyrazol-4-yl]methanol] | 14 |
| COc1c(-c2ccc(C#N)cc2)nn(C)c1Nc1cc(-n2nc(C)c(C(O)C(F)(F)F)c2C)ncn1 (racemic) [Example 425, (±)-4-{5-[(6-{3,5-dimethyl-4-[2,2,2-trifluoro-1-hydroxyethyl]-1H-pyrazol-1-yl}pyrimidin-4-yl)amino]-4-methoxy-1-methyl-1H-pyrazol-3-yl}benzonitrile] | 415 |
| COc1c(Nc2cc(-n3nc(C)c(C(O)C4CC4)c3C)ncn2)nn(C)c1-c1ccc(C#N)cc1 (racemic) [Example 459, (±)-4-{3-[(6-{4-[cyclopropyl(hydroxy)methyl]-3,5-dimethyl-1H-pyrazol-1-yl}pyrimidin-4-yl)amino]-4-methoxy-1-methyl-1H-pyrazol-5-yl}benzonitrile] | 46 |
| Cc1nn(-c2cc(Nc3c(C)c(-c4ccc(C(F)F)cc4)nn3CC3CC3)ncn2)c(C)c1C(O)C1CC1 (racemic) [Example 460, (±)-cyclopropyl {1-[6-({1-(cyclopropylmethyl)-3-[4-(difluoromethyl)phenyl]-4-methyl-1H-pyrazol-5-yl}amino)pyrimidin-4-yl]-3,5-dimethyl-1H-pyrazol-4-yl}methanol] | 98 |
| Cc1nn(-c2cc(Nc3c(C)c(-c4ccc(F)cc4)nn3CC3CC3)ncn2)c(C)c1C(N(C)C)C(F)(F)F (racemic) [Example 504, N-[1-(cyclopropylmethyl)-3-(4-fluorophenyl)-4-methyl-1H-pyrazol-5-yl]-6-{4-[(±)-1-(dimethylamino)-2,2,2-trifluoroethyl]-3,5-dimethyl-1H-pyrazol-1-yl}pyrimidin-4-amine] | 5 |
| CCc1c(Nc2cc(-n3nc(C)c(C(=O)N4CCCC4C)c3C)ncn2)nn(C)c1-c1ccc(F)cc1 (single isomer, unassigned) [Example 106, [1-ent-(6-{[4-ethyl-5-(4-fluorophenyl)-1-methyl-1H-pyrazol-3-yl]amino}pyrimidin-4-yl)-3,5-dimethyl-1H-pyrazol-4-yl](2-methylpyrrolidin-1-yl)methanone] | 120 |
| CCc1c(Nc2cc(-n3nc(C)c(C(=O)N4CCCC4C)c3C)ncn2)nn(C)c1-c1ccc(F)cc1 (single isomer, unassigned) [Example 107, [1-ent-(6-{[4-ethyl-5-(4-fluorophenyl)-1-methyl-1H-pyrazol-3-yl]amino}pyrimidin-4-yl)-3,5-dimethyl-1H-pyrazol-4-yl](2-methylpyrrolidin-1-yl)methanone] | 293 |
| COC(C)c1c(C)nn(-c2cc(Nc3c(C)c(-c4ccc(F)cc4)nn3CC3CC3)ncn2)c1C (single isomer, unassigned) [Example 327, N-[1-(cyclopropylmethyl)-3-(4-fluorophenyl)-4-methyl-1H-pyrazol-5-yl]-6-{4-[1-methoxyethyl]-3,5-dimethyl-1H-pyrazol-1-yl}pyrimidin-4-amine] | 4 |
| COC(C)c1c(C)nn(-c2cc(Nc3c(C)c(-c4ccc(F)cc4)nn3CC3CC3)ncn2)c1C (single isomer, unassigned) [Example 328, N-[1-(cyclopropylmethyl)-3-(4-fluorophenyl)-4-methyl-1H-pyrazol-5-yl]-6-{4-[1-methoxyethyl]-3,5-dimethyl-1H-pyrazol-1-yl}pyrimidin-4-amine] | 4 |
| Cc1nn(-c2cc(Nc3c(C)c(-c4ccc(F)cc4)nn3CC3CC3)ncn2)c(C)c1C(C)O (single isomer, unassigned) [Example 329, 1-[1-(6-{[1-(cyclopropylmethyl)-3-(4-fluorophenyl)-4-methyl-1H-pyrazol-5-yl]amino}pyrimidin-4-yl)-3,5-dimethyl-1H-pyrazol-4-yl]ethanol] | 67 |
| Cc1nn(-c2cc(Nc3c(C)c(-c4ccc(F)cc4)nn3CC3CC3)ncn2)c(C)c1C(C)O (single isomer, unassigned) [Example 330, 1-[1-(6-{[1-(cyclopropylmethyl)-3-(4-fluorophenyl)-4-methyl-1H-pyrazol-5-yl]amino}pyrimidin-4-yl)-3,5-dimethyl-1H-pyrazol-4-yl]ethanol] | 22 |
